US11053204B2, “Pyrimidinyloxy benzene derivatives as herbicides” (FMC Corporation, priority 2015, dated 2021)

Experiments:
Format in all cases: in vivo
[1] = tested on: pigweed (Amaranthus retroflexus); experiment: Test A preemergence, visual injury rating; settings: for Plant response rating, Pigweed: 31 g ai/ha, 0 to 100 scale, 0 no effect, 100 complete control; for Pigweed plant response rating: 125 g ai/ha, 0 to 100 scale (0 no effect, 100 complete control)
Outline: (§1)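 Scoring: eye-based comparison with untreated controls, 0 for no effect through 100 for complete control, at about day 10. Treatments: directed soil spray preemergence; foliar spray postemergence on 2–10 cm plants at the one- to two-leaf stage. Medium: loam soil with sand.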

[2] = tested on: Italian ryegrass (Lolium multiflorum); experiment: Test A preemergence, visual injury rating; settings: for Plant response rating, Ryegrass, Italian: 31 g ai/ha, 0 to 100 scale, 0 no effect, 100 complete control; for Ryegrass, Italian plant response rating: 125 g ai/ha, 0 to 100 scale (0 no effect, 100 complete control)
Outline: as §1

[3] = tested on: barnyardgrass (Echinochloa crus-galli); experiment: Test A preemergence, visual injury rating; settings: for Plant response rating, Barnyardgrass: 31 g ai/ha, 0 to 100 scale, 0 no effect, 100 complete control; for Barnyardgrass plant response rating: 125 g ai/ha, 0 to 100 scale (0 no effect, 100 complete control)
Outline: as §1

kochia (Kochia scoparia) = experiment: Test A preemergence, visual injury rating; settings: for Plant response rating, Kochia: 31 g ai/ha, 0 to 100 scale, 0 no effect, 100 complete control; for Kochia plant response rating: 125 g ai/ha, 0 to 100 scale (0 no effect, 100 complete control)
Outline: as §1

[4] = tested on: giant foxtail (Setaria faberii); experiment: Test A preemergence, visual injury rating; settings: for Plant response rating, Foxtail, Giant: 31 g ai/ha, 0 to 100 scale, 0 no effect, 100 complete control; for Foxtail, Giant plant response rating: 125 g ai/ha, 0 to 100 scale (0 no effect, 100 complete control)
Outline: as §1

[5] = tested on: ragweed (common ragweed, Ambrosia elatior); experiment: Test A preemergence, visual injury rating; settings: for Plant response rating, Ragweed: 31 g ai/ha, 0 to 100 scale, 0 no effect, 100 complete control; for Ragweed plant response rating: 125 g ai/ha, 0 to 100 scale (0 no effect, 100 complete control)
Outline: as §1

[6] = tested on: chickweed (common chickweed, Stellaria media); experiment: Test C postemergence, plant response rating; settings: for Chickweed plant response rating: scale 0 to 100 (0 no effect, 100 complete control)
Outline: (§2)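 After sowing in loam–sand blend or silt loam, pots were sprayed preemergence; separately grown 1- to 4-leaf plants were sprayed postemergence. Following 13 to 15 d under greenhouse conditions, injury was rated visually on a 0 to 100 scale.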

[7] = tested on: wheat (winter wheat, Triticum aestivum); experiment: Test C postemergence, plant response rating; settings: for Wheat plant response rating: 125 g ai/ha, scale 0 to 100 (0 no effect, 100 complete control)
Outline: as §2

[8] = tested on: oat, wild (wild oat Avena fatua); experiment: Test C postemergence, plant response rating; settings: for Oat, Wild plant response rating: scale 0 to 100 (0 no effect, 100 complete control)
Outline: as §2

[9] = tested on: galium (catchweed bedstraw, Galium aparine); experiment: Test C postemergence, plant response rating; settings: for Galium plant response rating: scale 0 to 100 (0 no effect, 100 complete control)
Outline: as §2

[10] = tested on: nutsedge, yellow (yellow nutsedge, Cyperus esculentus); experiment: Test C postemergence, plant response rating; settings: for Nutsedge, Yellow plant response rating: scale 0 to 100 (0 no effect, 100 complete control)
Outline: as §2

[11] = tested on: crabgrass, large (large crabgrass, Digitaria sanguinalis); experiment: Test C postemergence, plant response rating; settings: for Crabgrass, Large plant response rating: scale 0 to 100 (0 no effect, 100 complete control)
Outline: as §2

[12] = tested on: ryegrass, Italian (Italian ryegrass, Lolium multiflorum); experiment: Test C postemergence, plant response rating; settings: for Ryegrass, Italian plant response rating: scale 0 to 100 (0 no effect, 100 complete control)
Outline: as §2

[13] = tested on: lambsquarters (Chenopodium album); experiment: Test C postemergence, plant response rating; settings: for Lambsquarters plant response rating: scale 0 to 100 (0 no effect, 100 complete control)
Outline: as §2

corn (Zea mays) = experiment: Test C postemergence, plant response rating; settings: for Corn plant response rating: scale 0 to 100 (0 no effect, 100 complete control)
Outline: as §2

[14] = tested on: blackgrass (Alopecurus myosuroides); experiment: Test C postemergence, plant response rating; settings: for Plant response rating, Blackgrass: scale 0 to 100; for Blackgrass plant response rating: scale 0 to 100 (0 no effect, 100 complete control)
Outline: as §2

soybean (Glycine max) = experiment: Test C postemergence, plant response rating; settings: for Soybean plant response rating: scale 0 to 100 (0 no effect, 100 complete control)
Outline: as §2

[15] = tested on: foxtail, giant (giant foxtail, Setaria faberii); experiment: Test C postemergence, plant response rating; settings: for Foxtail, Giant plant response rating: scale 0 to 100 (0 no effect, 100 complete control)
Outline: as §2

O=C(CCC(F)(F)F)c1c(Br)cccc1Oc1ncc(Cl)cn1 [Compound 92]
Plant response rating, Pigweed [1]: 100
Pigweed plant response rating [1]: 100
Plant response rating, Ryegrass, Italian [2]: 30
Ryegrass, Italian plant response rating [2]: 80
Plant response rating, Barnyardgrass [3]: 70
Barnyardgrass plant response rating [3]: 100
Plant response rating, Kochia (kochia (Kochia scoparia)): 90
Kochia plant response rating (kochia (Kochia scoparia)): 90
Plant response rating, Foxtail, Giant [4]: 100
Foxtail, Giant plant response rating [4]: 100
Plant response rating, Ragweed [5]: 0
Ragweed plant response rating [5]: 0
Plant response rating, Chickweed ([6]; 16 g ai/ha, scale of 0 to 100): 100
Plant response rating, Chickweed ([6]; 31 g ai/ha, scale 0 to 100): 100
Chickweed plant response rating ([6]; 62 g ai/ha): 100
Chickweed plant response rating ([6]; 125 g ai/ha): 100
Plant response rating, Wheat ([7]; 16 g ai/ha, scale of 0 to 100): 0
Plant response rating, Wheat ([7]; 31 g ai/ha, scale 0 to 100): 0
Wheat plant response rating [7]: 10
Plant response rating, Oat, Wild ([8]; 16 g ai/ha, scale of 0 to 100): 5
Plant response rating, Oat, Wild ([8]; 31 g ai/ha, scale 0 to 100): 5
Oat, Wild plant response rating ([8]; 62 g ai/ha): 5
Oat, Wild plant response rating ([8]; 125 g ai/ha): 5
Plant response rating, Galium ([9]; 16 g ai/ha, scale of 0 to 100): 80
Plant response rating, Galium ([9]; 31 g ai/ha, scale 0 to 100): 85
Galium plant response rating ([9]; 62 g ai/ha): 100
Galium plant response rating ([9]; 125 g ai/ha): 100
Plant response rating, Nutsedge, Yellow ([10]; 16 g ai/ha, scale of 0 to 100): 0
Plant response rating, Nutsedge, Yellow ([10]; 31 g ai/ha, scale 0 to 100): 10
Nutsedge, Yellow plant response rating ([10]; 62 g ai/ha): 10
Nutsedge, Yellow plant response rating ([10]; 125 g ai/ha): 20
Plant response rating, Crabgrass, Large ([11]; 16 g ai/ha, scale of 0 to 100): 20
Plant response rating, Crabgrass, Large ([11]; 31 g ai/ha, scale 0 to 100): 10
Crabgrass, Large plant response rating ([11]; 62 g ai/ha): 25
Crabgrass, Large plant response rating ([11]; 125 g ai/ha): 35
Plant response rating, Ryegrass, Italian ([12]; 16 g ai/ha, scale of 0 to 100): 10
Plant response rating, Ryegrass, Italian ([12]; 31 g ai/ha, scale 0 to 100): 15
Ryegrass, Italian plant response rating ([12]; 62 g ai/ha): 10
Ryegrass, Italian plant response rating ([12]; 125 g ai/ha): 30
Plant response rating, Lambsquarters ([13]; 16 g ai/ha, scale of 0 to 100): 40
Plant response rating, Lambsquarters ([13]; 31 g ai/ha, scale 0 to 100): 60
Lambsquarters plant response rating ([13]; 62 g ai/ha): 50
Lambsquarters plant response rating ([13]; 125 g ai/ha): 85
Plant response rating, Corn (corn (Zea mays); 16 g ai/ha, scale of 0 to 100): 10
Plant response rating, Corn (corn (Zea mays); 31 g ai/ha, scale 0 to 100): 20
Corn plant response rating (corn (Zea mays); 62 g ai/ha): 15
Corn plant response rating (corn (Zea mays); 125 g ai/ha): 20
Plant response rating, Blackgrass ([14]; 16 g ai/ha): 5
Plant response rating, Blackgrass ([14]; 31 g ai/ha): 10
Blackgrass plant response rating ([14]; 62 g ai/ha): 5
Blackgrass plant response rating ([14]; 125 g ai/ha): 20
Plant response rating, Soybean (soybean (Glycine max); 16 g ai/ha, scale of 0 to 100): 30
Plant response rating, Soybean (soybean (Glycine max); 31 g ai/ha, scale 0 to 100): 40
Soybean plant response rating (soybean (Glycine max); 62 g ai/ha): 70
Soybean plant response rating (soybean (Glycine max); 125 g ai/ha): 75
Plant response rating, Foxtail, Giant ([15]; 16 g ai/ha, scale of 0 to 100): 10
Plant response rating, Foxtail, Giant ([15]; 31 g ai/ha, scale 0 to 100): 20
Foxtail, Giant plant response rating ([15]; 62 g ai/ha): 25
Foxtail, Giant plant response rating ([15]; 125 g ai/ha): 50

N#Cc1cccc(Oc2ncc(Cl)cn2)c1COCCC(F)(F)F [Compound 80]
Plant response rating, Pigweed [1]: 100
Pigweed plant response rating [1]: 100
Plant response rating, Ryegrass, Italian [2]: 0
Ryegrass, Italian plant response rating [2]: 50
Plant response rating, Barnyardgrass [3]: 60
Barnyardgrass plant response rating [3]: 100
Plant response rating, Kochia (kochia (Kochia scoparia)): 100
Kochia plant response rating (kochia (Kochia scoparia)): 100
Plant response rating, Foxtail, Giant [4]: 90
Foxtail, Giant plant response rating [4]: 100
Plant response rating, Ragweed [5]: 0
Ragweed plant response rating [5]: 20
Plant response rating, Chickweed ([6]; 16 g ai/ha, scale of 0 to 100): 60
Plant response rating, Chickweed ([6]; 31 g ai/ha, scale 0 to 100): 75
Chickweed plant response rating ([6]; 62 g ai/ha): 75
Chickweed plant response rating ([6]; 125 g ai/ha): 90
Plant response rating, Wheat ([7]; 16 g ai/ha, scale of 0 to 100): 0
Plant response rating, Wheat ([7]; 31 g ai/ha, scale 0 to 100): 0
Wheat plant response rating [7]: 15
Plant response rating, Oat, Wild ([8]; 16 g ai/ha, scale of 0 to 100): 0
Plant response rating, Oat, Wild ([8]; 31 g ai/ha, scale 0 to 100): 0
Oat, Wild plant response rating ([8]; 62 g ai/ha): 10
Oat, Wild plant response rating ([8]; 125 g ai/ha): 5
Plant response rating, Galium ([9]; 16 g ai/ha, scale of 0 to 100): 70
Plant response rating, Galium ([9]; 31 g ai/ha, scale 0 to 100): 75
Galium plant response rating ([9]; 62 g ai/ha): 85
Galium plant response rating ([9]; 125 g ai/ha): 90
Plant response rating, Nutsedge, Yellow ([10]; 16 g ai/ha, scale of 0 to 100): 0
Plant response rating, Nutsedge, Yellow ([10]; 31 g ai/ha, scale 0 to 100): 0
Nutsedge, Yellow plant response rating ([10]; 62 g ai/ha): 5
Nutsedge, Yellow plant response rating ([10]; 125 g ai/ha): 5
Plant response rating, Crabgrass, Large ([11]; 16 g ai/ha, scale of 0 to 100): 10
Plant response rating, Crabgrass, Large ([11]; 31 g ai/ha, scale 0 to 100): 15
Crabgrass, Large plant response rating ([11]; 62 g ai/ha): 10
Crabgrass, Large plant response rating ([11]; 125 g ai/ha): 30
Plant response rating, Ryegrass, Italian ([12]; 16 g ai/ha, scale of 0 to 100): 0
Plant response rating, Ryegrass, Italian ([12]; 31 g ai/ha, scale 0 to 100): 0
Ryegrass, Italian plant response rating ([12]; 62 g ai/ha): 5
Ryegrass, Italian plant response rating ([12]; 125 g ai/ha): 5
Plant response rating, Lambsquarters ([13]; 16 g ai/ha, scale of 0 to 100): 50
Plant response rating, Lambsquarters ([13]; 31 g ai/ha, scale 0 to 100): 75
Lambsquarters plant response rating ([13]; 62 g ai/ha): 80
Lambsquarters plant response rating ([13]; 125 g ai/ha): 85
Plant response rating, Corn (corn (Zea mays); 16 g ai/ha, scale of 0 to 100): 15
Plant response rating, Corn (corn (Zea mays); 31 g ai/ha, scale 0 to 100): 10
Corn plant response rating (corn (Zea mays); 62 g ai/ha): 15
Corn plant response rating (corn (Zea mays); 125 g ai/ha): 25
Plant response rating, Blackgrass ([14]; 16 g ai/ha): 0
Plant response rating, Blackgrass ([14]; 31 g ai/ha): 5
Blackgrass plant response rating ([14]; 62 g ai/ha): 5
Blackgrass plant response rating ([14]; 125 g ai/ha): 25
Plant response rating, Soybean (soybean (Glycine max); 16 g ai/ha, scale of 0 to 100): 60
Plant response rating, Soybean (soybean (Glycine max); 31 g ai/ha, scale 0 to 100): 75
Soybean plant response rating (soybean (Glycine max); 62 g ai/ha): 90
Soybean plant response rating (soybean (Glycine max); 125 g ai/ha): 95
Plant response rating, Foxtail, Giant ([15]; 16 g ai/ha, scale of 0 to 100): 5
Plant response rating, Foxtail, Giant ([15]; 31 g ai/ha, scale 0 to 100): 10
Foxtail, Giant plant response rating ([15]; 62 g ai/ha): 10
Foxtail, Giant plant response rating ([15]; 125 g ai/ha): 15
